# Key:
# THF-ISRE cells = experiment: THF luciferase activity, primary (initial) screen in THF-ISRE cells; assay type: cell-based, human; conditions: inducible luciferase reporter signalling upon IRF3 activation, compounds 50 μM to 0.391 μM, 18 hours, luminescence
# Experimental: (§1) STING molecules were screened to determine human STING pathway specificity. THF-ISRE, THF-ISRE STING knock-out (KO), and THF-ISRE TRIF/MAVS KO cell lines contain an inducible luciferase reporter construct that will signal upon IRF3 activation. THF-ISRE STING KO cell line only has the TRIF/MAVS pathway to activate IRF3. THF-ISRE TRIF/MAVS KO cell line uses only the STING pathway for IRF3 activation. Luciferase activity was determined by measuring luminescence.
# (§2) The three cell lines were maintained in T-75 flasks with DMEM/High Glucose (Cytiva™, Logan, UT), Pen/Strep/Glutamine (Hyclone™, Logan, UT), and 10% heat inactivated FBS (Hyclone™, Logan, UT).
# (§3) For primary screening, THF-ISRE cells were plated at a density of 15,000 cells/well in opaque flat bottom 96-well tissue culture plates. Cells incubated for 36 hours and treated with DMSO (Sigma™, St. Louis, MO) formulated compounds. Before treatment, cell media was changed to 2% FBS in DMEM with antibiotics. Compounds were serially diluted 2-fold, starting at 50 μM and ending at 0.391 μM. Luciferase activity was measured after 18 hours by addition of Steady-Glo Luciferase Assay System (Promega™, Madison, WI) at a 1:1 ratio and luminescence read by plate reader.
# human STING pathway = experiment: THF luciferase activity, secondary screen in THF-ISRE TRIF/MAVS KO cells (STING only); assay type: cell-based; conditions: only the STING pathway for IRF3 activation
# Experimental: as §1, §2, §3
# The secondary screening used the same procedure as above with THF-ISRE STING KO and THF-ISRE TRIF/MAVS KO cells. If the compound was human STING specific, only THF-ISRE TRIF/MAVS KO cells would have luciferase activity.
SMILES,luciferase activity (initial screen) (THF-ISRE cells),luciferase activity in TRIF/MAVS KO cells (STING pathway use) (human STING pathway)
O=C(NCc1c(F)cc(F)cc1F)c1ccc2c(c1)SCC(=O)N2Cc1c(O)cccc1F [INI-3069],positive luciferase activity,use the STING pathway for luciferase activity
CC1Sc2cc(C(=O)NCc3c(F)cc(F)cc3F)ccc2N(Cc2c(O)cccc2F)C1=O (centres unmarked) [INI-3071],positive luciferase activity,use the STING pathway for luciferase activity
CC1Sc2cc(C(=O)NCc3ccco3)ccc2N(Cc2c(O)cccc2F)C1=O (centres unmarked) [INI-3070],positive luciferase activity,use the STING pathway for luciferase activity
COc1cccc(F)c1CN1C(=O)CSc2cc(C(=O)NCc3c(F)cc(F)cc3F)ccc21 [INI-3067],positive luciferase activity,use the STING pathway for luciferase activity

# Source: US20260021107A1, “STIMULATOR OF INTERFERON GENES AGONISTS” (INIMMUNE CORP., priority 2022, published 2026)
